# In patent US12404265B2, “Substituted pyridine derivatives as SARM1 inhibitors” (Nura Bio, Inc., priority 2020, dated 2025):
# Target: T1, human SARM1(50-724) (Homo sapiens, UniProt Q6SZW1)
# T1 construct: 40 nM human SARM1(50-724)
# T1 sequence (Q6SZW1 50-724): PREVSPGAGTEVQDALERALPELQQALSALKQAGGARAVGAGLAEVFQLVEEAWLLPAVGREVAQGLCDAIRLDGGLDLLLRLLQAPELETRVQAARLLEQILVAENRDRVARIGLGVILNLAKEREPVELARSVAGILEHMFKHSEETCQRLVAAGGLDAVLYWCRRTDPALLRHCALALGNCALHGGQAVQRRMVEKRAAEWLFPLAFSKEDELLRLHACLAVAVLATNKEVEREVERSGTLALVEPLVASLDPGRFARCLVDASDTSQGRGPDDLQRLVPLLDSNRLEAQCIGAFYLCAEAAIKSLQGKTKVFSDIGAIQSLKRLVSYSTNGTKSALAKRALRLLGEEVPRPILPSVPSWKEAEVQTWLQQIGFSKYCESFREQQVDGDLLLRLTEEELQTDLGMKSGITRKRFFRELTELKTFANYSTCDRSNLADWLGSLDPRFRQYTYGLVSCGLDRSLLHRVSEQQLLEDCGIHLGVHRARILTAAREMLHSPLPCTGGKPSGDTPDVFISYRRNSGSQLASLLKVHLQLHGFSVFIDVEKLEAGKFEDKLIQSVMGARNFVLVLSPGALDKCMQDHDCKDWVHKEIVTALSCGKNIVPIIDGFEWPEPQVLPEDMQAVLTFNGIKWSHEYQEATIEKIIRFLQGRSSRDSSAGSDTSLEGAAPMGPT
# Experiment: SARM1 NADase biochemical assay (HPLC of NAD and NAM)
# Conditions: 40 nM human SARM1(50-724), 0.3 mM NMN, 20 μM NAD, 60 minutes room temperature; dose-response from 100 μM, 1:3 dilution
# Description: Each reaction was run at a volume of 20 μL containing 50 μM compound (dissolved in DMSO; final concentration of DMSO is 1% v/v), 40 nM human SARM1(50-724), 0.3 mM NMN, 20 μM NAD, 1 mM TCEP, 25 mM HEPES pH 7.4, 10 mM KCl and 10 mM MgCl2. The reaction was incubated at room temperature for 60 minutes and quenched with 20 μL of 0.4% formic acid. The samples were run on Agilent HPLC 1260 Infinity II with Synergi 2.5 μM Fusion-RP 100 Å (100×3.0 mm) LC column from Phenomenex. Total run time for each sample was 4 minutes. The run was isocratic with 1.5% methanol in 40 mM ammonium acetate pH 6.0. Samples were run at a flow rate of 0.8 mL/min at 55° C. Peak areas of NAD and NAM were determined using OpenLAB CDS (Chem Station edition) software. For dose-response, the compound was diluted serially 1:3 in DMSO and added to the reaction starting at a final compound concentration of 100 μM in 1% DMSO.
row,Structure (SMILES),IC50 [nM]
1,"COc1c(-c2ccncc2)n[nH]c1NC(=O)CCc1ccc(Cl)cc1 [Example 122, 3-(4-Chlorophenyl)-N-(4-methoxy-3-(pyridin-4-yl)-1H-pyrazol-5-yl)propanamide]",< 1000
2,"O=C(CCc1ccc(Cl)cc1)Nc1nnc(-c2ccncc2)[nH]1 [Example 162, 3-(4-Chlorophenyl)-N-(5-(pyridin-4-yl)-4H-1,2,4-triazol-3-yl)propanamide]",< 1000
3,"Cc1c(-c2ccncc2)n[nH]c1N(C(=O)CCc1ccc(Cl)cc1)C(=O)CCc1cccc(Cl)c1 [Example 4, 3-(3-Chlorophenyl)-N-(3-(4-chlorophenyl)propanoyl)-N-(4-methyl-3-(pyridin-4-yl)-1H-pyrazol-5-yl)propanamide]",< 1000
4,"O=C1N(Cc2ccc(Cl)cc2)CCCN1c1cnn(-c2ccncc2)c1 [Example 159, 1-(4-Chlorobenzyl)-3-(1-(pyridin-4-yl)-1H-pyrazol-4-yl)tetrahydropyrimidin-2(1H)-one]",1000 to 10000
5,"Cc1c(-c2ccncc2)n[nH]c1NC(=O)CCc1cc(Cl)c(Cl)c(Cl)c1 [Example 47, N-(4-Methyl-3-(pyridin-4-yl)-1H-pyrazol-5-yl)-3-(3,4,5-trichlorophenyl)propanamide]",< 1000
6,"O=C(CCc1ccc(Cl)cc1)Nc1cc(-c2ccncc2F)n[nH]1 [Example 170, 3-(4-Chlorophenyl)-N-(3-(3-fluoropyridin-4-yl)-1H-pyrazol-5-yl)propanamide]",< 1000
7,"O=C(NCc1ccc(Cl)cc1)Nc1[nH]nc(-c2ccncc2)c1Cl [Example 168, 1-(4-Chloro-3-(pyridin-4-yl)-1H-pyrazol-5-yl)-3-(4-chlorobenzyl)urea]",< 1000
8,"CCc1ccc(CCC(=O)Nc2[nH]nc(-c3ccncc3)c2C)cc1 [Example 34, 3-(4-Ethylphenyl)-N-(4-methyl-3-(pyridin-4-yl)-1H-pyrazol-5-yl)propanamide]",1000 to 10000
9,"O=C(CCc1ccc(Cl)cc1)Nc1[nH]nc(-c2ccncc2)c1CO [Example 116, 3-(4-Chlorophenyl)-N-(4-(hydroxymethyl)-3-(pyridin-4-yl)-1H-pyrazol-5-yl)propanamide]",< 1000
10,"Cc1c(-c2ccncc2)n[nH]c1NC(=O)CCc1ccc(Cl)c(F)c1F [Example 49, 3-(4-Chloro-2,3-difluorophenyl)-N-(4-methyl-3-(pyridin-4-yl)-1H-pyrazol-5-yl)propanamide]",< 1000
11,"Cc1c(-c2ccncc2)n[nH]c1NC(=O)CCc1ccc(I)cc1 [Example 46, 3-(4-Iodophenyl)-N-(4-methyl-3-(pyridin-4-yl)-1H-pyrazol-5-yl)propanamide]",< 1000
12,"Cc1c(-c2ccncc2)n[nH]c1NC(=O)CCc1cc(Cl)cc(Cl)c1 [Example 21, 3-(3,5-Dichlorophenyl)-N-(4-methyl-3-(pyridin-4-yl)-1H-pyrazol-5-yl)propanamide]",1000 to 10000
13,"N#Cc1ccc(CCC(=O)Nc2cnn(-c3ccncc3)c2Cl)cc1F [Example 94, N-(5-Chloro-1-(pyridin-4-yl)-1H-pyrazol-4-yl)-3-(4-cyano-3-fluorophenyl)propanamide]",< 1000
14,"O=C(CCc1ccc(Cl)cc1)Nc1[nH]nc(-c2ccncc2)c1C1CC1 [Example 123, 3-(4-Chlorophenyl)-N-(4-cyclopropyl-3-(pyridin-4-yl)-1H-pyrazol-5-yl)propanamide]",< 1000
15,"CCc1c(-c2ccncc2)n[nH]c1NC(=O)CCc1ccc(Cl)cc1 [Example 14, 3-(4-Chlorophenyl)-N-(4-ethyl-3-(pyridin-4-yl)-1H-pyrazol-5-yl)propanamide]",< 1000
16,"Cc1c(-c2ccncc2)n[nH]c1NC(=O)CC1CCCc2ccccc21 (stereo not shown) [Example 66, N-[4-Methyl-3-(pyridin-4-yl)-1H-pyrazol-5-yl]-2-(1,2,3,4-tetrahydronaphthalen-1-yl)acetamide]",1000 to 10000
17,"O=C(CCc1cc(F)c(F)c(F)c1)Nc1cnn(-c2ccncc2)c1Cl [Example 92, N-(5-Chloro-1-(pyridin-4-yl)-1H-pyrazol-4-yl)-3-(3,4,5-trifluorophenyl)propanamide]",< 1000
18,"Cc1cccc(CCC(=O)Nc2[nH]nc(-c3ccncc3)c2C)c1 [Example 25, N-(4-Methyl-3-(pyridin-4-yl)-1H-pyrazol-5-yl)-3-(m-tolyl)propanamide]",1000 to 10000
19,"Cc1c(-c2ccncc2)n[nH]c1NC(=O)CCc1ccc2c(c1)OCO2 [Example 20, 3-(Benzo[d][1,3]dioxol-5-yl)-N-(4-methyl-3-(pyridin-4-yl)-1H-pyrazol-5-yl)propanamide]",< 1000

row,Structure (SMILES),IC50 [nM]
1,O=C(CCc1ccc(Cl)c(F)c1)Nc1[nH]nc(-c2ccncc2)c1CO [Example 118],< 1000
2,"Cc1c(NC(=O)CSc2ccc(Cl)cc2)cnn1-c1ccncc1 [Example 81, 2-((4-Chlorophenyl)thio)-N-(5-methyl-1-(pyridin-4-yl)-1H-pyrazol-4-yl)acetamide]",< 1000
3,"O=C(CCc1ccc(Cl)cc1)Nc1cnn(-c2ccncc2)c1C(F)(F)F [Example 95, 3-(4-Chlorophenyl)-N-(1-(pyridin-4-yl)-5-(trifluoromethyl)-1H-pyrazol-4-yl)propanamide]",< 1000
4,"Cc1c(-c2ccncc2)n[nH]c1NC(=O)CCc1ccc(Cl)cn1 [Example 39, 3-(5-Chloropyridin-2-yl)-N-(4-methyl-3-(pyridin-4-yl)-1H-pyrazol-5-yl)propanamide]",1000 to 10000
5,O=C(CCc1ccc(Cl)cc1)Nc1nc(-c2ccncc2)c[nH]1 [Example 108],1000 to 10000
6,"Cc1c(-c2ccncc2)n[nH]c1NC(=O)C(F)(F)Cc1ccc(Cl)cc1 [Example 80, 3-(4-Chlorophenyl)-2,2-difluoro-N-(4-methyl-3-(pyridin-4-yl)-1H-pyrazol-5-yl)propanamide]",1000 to 10000
7,Cc1c(NC(=O)CCc2ccc(Cl)nc2)cnn1-c1ccncc1 [Example 82],< 1000
8,"O=C(CCc1ccc2c(c1)OCO2)Nc1cc(-c2ccncc2)n[nH]1 [Example 99, 3-(Benzo[d][1,3]dioxol-5-yl)-N-(3-(pyridin-4-yl)-1H-pyrazol-5-yl)propanamide]",1000 to 10000
9,"Cc1c(-c2ccncc2)n[nH]c1NC(=O)CCc1ccc(F)cc1F [Example 45, 3-(2,4-Difluorophenyl)-N-(4-methyl-3-(pyridin-4-yl)-1H-pyrazol-5-yl)propanamide]",< 1000
10,"S=C(NCc1ccc(Cl)cc1)Nc1cnn(-c2ccncc2)c1 [Example 160, 1-(4-Chlorobenzyl)-3-(1-(pyridin-4-yl)-1H-pyrazol-4-yl)thiourea]",1000 to 10000
11,"Cc1c(NC(=O)C(O)Cc2ccc(Cl)cc2)cnn1-c1ccncc1 (racemic) [Example 150, (rac)-3-(4-Chlorophenyl)-2-hydroxy-N-(5-methyl-1-(pyridin-4-yl)-1H-pyrazol-4-yl)propanamide]",1000 to 10000
12,"Cc1c(-c2ccncc2)n[nH]c1NC(=O)NCc1ccc(F)cc1 [Example 142, 1-[(4-Fluorophenyl)methyl]-3-[4-methyl-3-(pyridin-4-yl)-1H-pyrazol-5-yl]urea]",< 1000
13,"Cc1c(-c2ccncc2)n[nH]c1NC(=O)CCc1ccc(Br)cc1 [Example 35, 3-(4-Bromophenyl)-N-(4-methyl-3-(pyridin-4-yl)-1H-pyrazol-5-yl)propanamide]",< 1000
14,"Cc1c(-c2ccncc2)n[nH]c1NC(=O)C(F)Cc1ccc(Cl)cc1 (racemic) [Example 18, (rac)-3-(4-chlorophenyl)-2-fluoro-N-(4-methyl-3-(pyridin-4-yl)-1H-pyrazol-5-yl)propanamide]",< 1000
15,"Cc1c(-c2ccncc2)n[nH]c1NC(=O)CCc1ccc(OC(F)(F)F)cc1 [Example 54, N-(4-Methyl-3-(pyridin-4-yl)-1H-pyrazol-5-yl)-3-(4-(trifluoromethoxy)phenyl)propanamide]",< 1000
16,"Cc1c(-c2ccncc2)n[nH]c1NC(=O)CCc1ccc(OC(F)F)cc1 [Example 55, 3-(4-(Difluoromethoxy)phenyl)-N-(4-methyl-3-(pyridin-4-yl)-1H-pyrazol-5-yl)propanamide]",< 1000
17,C#Cc1ccc(CCC(=O)Nc2[nH]nc(-c3ccncc3)c2C)cc1 [Example 140],< 1000
18,"Cc1c(-c2ccncc2)n[nH]c1NC(=O)CCc1ccc(Cl)nc1 [Example 38, 3-(6-Chloropyridin-3-yl)-N-(4-methyl-3-(pyridin-4-yl)-1H-pyrazol-5-yl)propanamide]",< 1000
